Reference: patent publication US11141455B2, “Peptide analogues with branched amino acid probe(s)” (priority 2014, dated 2021)
Where a SMILES comes first, the peptide text is derived from it.

Assays:
MC3r = molecular target: T1, MC3r (Homo sapiens, UniProt P41968); assay: Radioligand binding, displacement of 125I-NDP-αMSH (Cerep); conditions: Example 2, α-MSH analogues
T1 construct: 0959 (cAMP); host or cells: CHO cells
Protocol: Murine B16-F1 cells expressing MCr1 are used for determination of binding affinity to and agonist activity against the MC1r. Human recombinant CHO cells expressing MC3r, MC4r or MC5r are used for determination of affinity to or agonist activity against the MC3r, MC4r and MC5r, respectively. […] The test items are tested in a concentration range of 10^−13 to 10^−5M.

human GLP-1 receptor = molecular target: T2, human GLP-1 receptor (Homo sapiens, UniProt P43220); assay: cAMP production (HTRF) in CHO-K1 cells expressing GLP-1 receptor; type: cell-based; conditions: CHO-K1; read-out: Max efficacy in % of control peptide
T2 construct: expressed in transfected cells; host or cells: CHO-K1 cells
T2 sequence (P43220 24-463): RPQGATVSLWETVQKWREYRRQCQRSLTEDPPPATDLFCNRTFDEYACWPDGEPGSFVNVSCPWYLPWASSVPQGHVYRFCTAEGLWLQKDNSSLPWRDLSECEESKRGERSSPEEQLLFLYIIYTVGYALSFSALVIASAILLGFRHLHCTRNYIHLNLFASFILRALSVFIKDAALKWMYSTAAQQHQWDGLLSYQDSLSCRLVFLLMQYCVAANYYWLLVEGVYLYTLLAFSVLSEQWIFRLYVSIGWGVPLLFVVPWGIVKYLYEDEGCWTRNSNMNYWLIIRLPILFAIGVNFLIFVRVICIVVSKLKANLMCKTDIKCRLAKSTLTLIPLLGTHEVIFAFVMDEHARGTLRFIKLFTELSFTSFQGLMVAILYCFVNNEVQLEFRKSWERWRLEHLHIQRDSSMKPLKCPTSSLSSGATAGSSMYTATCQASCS

[1] = molecular target: T3, recombinant human type 2 Formyl peptide receptor (FPR2) (Homo sapiens, UniProt P25090); assay: Aequorin light emission agonist assay in recombinant FPR2 cells; type: cell-based; conditions: at the highest tested dose; read-out: maximal agonist activity, % of max response of internal control Trp-Lys-Tyr-Met-Val-Met
T3 construct: expressed in transfected cells
T3 sequence (P25090 1-351): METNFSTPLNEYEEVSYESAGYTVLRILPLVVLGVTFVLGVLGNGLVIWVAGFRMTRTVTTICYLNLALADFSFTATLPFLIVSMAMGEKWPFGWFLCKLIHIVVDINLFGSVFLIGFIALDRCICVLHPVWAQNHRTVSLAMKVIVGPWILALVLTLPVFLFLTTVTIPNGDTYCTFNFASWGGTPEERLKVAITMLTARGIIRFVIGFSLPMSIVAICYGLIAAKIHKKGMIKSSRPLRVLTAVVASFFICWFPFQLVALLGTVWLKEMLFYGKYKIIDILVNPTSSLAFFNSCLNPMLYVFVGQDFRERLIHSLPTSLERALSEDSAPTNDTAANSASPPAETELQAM
Protocol: Recombinant cells co-expressing mitochondrial apoaequirin and recombinant human type 2 Formyl peptide receptor (FPR2) were grown for 18 hours prior to testing in media without antibiotics were detached by gentle flushing with PBS-EDTA (5 mM EDTA), recovered by centrifugation and re-suspended in assay buffer (DHEM/HAM's F12 with HEPES and 0.1% protease free BSA). Cells were then incubated for at least 4 hours at room temperature coelenterazine h (from Molecular Probes) before DR studies were conducted.
50 μl of cell suspension was injected on 50 μl of the test or control compound (solubilized in PBS/0.5% BSA and finally diluted from a stock solution of 1 mM) at increasing concentrations in 96 wells plates and then incubated 30 min at room temperature. The resulting light emission was recorded using the Hamamatsu functional drug Screening system 6000 (FDSS6000). For standardization of emission of recorded light across plates and between experiments 100 μM digitonin or 20 μM ATP were added to some of the wells.
The test compounds were tested in a concentration range from 10^−11 to 10^−5M
Data is presented as mean values.

T1 sequence (P41968 whole entry): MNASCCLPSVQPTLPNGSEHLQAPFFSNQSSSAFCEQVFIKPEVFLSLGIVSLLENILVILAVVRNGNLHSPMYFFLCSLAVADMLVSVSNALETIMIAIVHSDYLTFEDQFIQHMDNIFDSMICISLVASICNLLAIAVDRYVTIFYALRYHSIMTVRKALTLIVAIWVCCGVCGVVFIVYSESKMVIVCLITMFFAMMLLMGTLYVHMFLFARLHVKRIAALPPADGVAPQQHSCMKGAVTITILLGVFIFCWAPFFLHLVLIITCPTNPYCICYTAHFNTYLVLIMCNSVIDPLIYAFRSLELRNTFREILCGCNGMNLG

Structure (SMILES)	Ki (MC3r) [µM]	Emax (human GLP-1 receptor) [%]	Emax [1] [%]
CSCC[C@H](NC(=O)[C@H](CO)NC(=O)[C@H](Cc1ccc(O)cc1)NC(=O)[C@H](CO)NC(=O)[C@H](CCCCNC(=O)[C@H](CCCCN)NC(=O)[C@H](CCCCN)NC(C)=O)NC(C)=O)C(=O)N[C@@H](CCC(=O)O)C(=O)N[C@@H](Cc1c[nH]cn1)C(=O)N[C@@H](Cc1ccccc1)C(=O)N[C@@H](CCCNC(=N)N)C(=O)N[C@@H](Cc1c[nH]c2ccccc12)C(=O)NCC(=O)N[C@@H](CCCCN)C(=O)N1CCC[C@H]1C(=O)N[C@H](C(N)=O)C(C)C [Analogue 1]	0.024	101	–
CSCC[C@H](NC(=O)[C@H](C)NC(C)=O)C(=O)N[C@H](C(=O)N[C@@H](CO)C(=O)N[C@@H](CCC(=O)O)C(=O)N[C@@H](Cc1ccccc1)C(=O)N[C@@H](CC(C)C)C(=O)N[C@@H](CCCCNC(=O)[C@H](CCCCN)NC(=O)[C@H](CCCCNC(=O)[C@H](CCCCN)NC(C)=O)NC(C)=O)C(=O)N[C@@H](CCC(N)=O)C(=O)N[C@@H](C)C(=O)N[C@@H](Cc1c[nH]c2ccccc12)C(N)=O)C(C)C [analogue 7] (HELM PEPTIDE1{[ac].A.M.V.S.E.F.L.K.Q.A.W.[am]}|PEPTIDE2{[CC(=O)N[C@@H](CCCCN)C(=O)NCCCC[C@H](NC(C)=O)C(=O)[*:2]].K}$PEPTIDE1,PEPTIDE2,9:R3-2:R2$$$V2.0)	–	–	85
